For experiment [1], the target named is T1, N-type calcium channel (NTCC) (Homo sapiens, UniProt Q00975).
T1 construct: endogenous in cells; host or cells: differentiated IMR32 cells (ATCC)
Briefly: FLIPR calcium mobilization (and/or electrophysiological) assay for N-type calcium channel. It counts as cell-based. Particulars: calcium mobilization and/or electrophysiological in vitro assay; differentiated IMR32 cells, 90 mM KCl, 5 μM nitrendipine. On the procedure:
Unless noted otherwise, cell culture reagents were purchased from Life Technologies of Rockville, Md. IMR32 cells (American Type Culture Collection, ATCC, Manassas, Va.) were routinely cultured in growth medium consisting of minimum essential medium containing 10% fetal bovine serum (FBS, Hyclone, Logan, Utah), 100 U/mL penicillin, 100 μg/mL streptomycin, 2 mM L-glutamine, 1 mM sodium pyruvate, and 1×MEM non-essential amino acids. 80-90% confluent flasks of cells were differentiated using the following differentiation medium: Growth medium plus 1 mM dibutyryl cyclic AMP (Sigma, St. Louis, Mo.), and 2.5 μM bromodeoxyuridine (Sigma). Cells were differentiated for 8 days by replacing differentiation medium every 2-3 days.
One day prior to performing this assay, differentiated IMR32 cells were treated with 1× CellStripper, and seeded on poly-D-lysine-coated 96-well clear-bottom black plates (Becton Dickinson, Franklin Lakes, N.J.) at 200,000 cells/well. On the day of the assay, the cell plates were washed with IMR32 buffer (127 mM NaCl, 1 mM KCl, 2 mM MgCl2, 700 μM NaH2PO4, 5 mM CaCl2, 5 mM NaHCO3, 8 mM HEPES, 10 mM glucose, pH 7.4), then pre-stimulated with KCl and loaded as follows: 0.05 mL of IMR32 buffer, 0.05 mL of each compound tested diluted in IMR32 buffer containing 20 μM nitrendipine (Sigma), and 0.1 mL KCl dissolved in IMR32 buffer, plus Fluo-4 were added (3 μM final concentration, Molecular Probes, Eugene, Oreg.). Final test compound concentrations ranged from about 846 pM to about 17 μM, final nitrendipine concentration was 5 μM, and final KCl concentration was 90 mM. After 1 hour, the cells were washed twice with 0.05 mL of each compound tested in nitrendipine-containing IMR32 buffer (no KCl or Fluo-4), and then replaced with 0.1 mL of each compound tested in nitrendipine-containing IMR32 buffer. Plates were then transferred to a Fluorimetric Imaging Plate Reader (FLIPR^96, Molecular Devices, Inc., Sunnyvale, Calif.) for assay. The FLIPR measured basal Fluo-4 fluorescence for 315 seconds (i.e., 5 minutes and 15 seconds), then added 0.1 mL KCl agonist dissolved in IMR32 buffer and measured fluorescence for another 45 seconds. Final test compound concentrations on the cells after FLIPR read ranged from about 846 pM to about 17 μM, final nitrendipine concentration was 5 μM, and final KCl concentration was 90 mM. Data were collected over the entire time course and analyzed using Excel, Graph Pad Prism (version 3.02, Graph Pad, San Diego, Calif.), or Activity Base (version 5.1, IDBS, Parsippany, N.J.) software.
N-type calcium channel expressing HEK-293 cells were created in two stages. Stage 1 was created as follows. The rat α1b, and β3 cDNA expression constructs (2.5 μg each) were co-transfected into human embryonic kidney (HEK-293) cells by Lipofectamine Plus reagent (Invitrogen), as per manufacturer's instructions. 24 hours later, cells were split in limiting dilution into multiple 96-well plates in selection media containing 20 μg/mL blasticidin and 500 μg/mL geneticin, and incubated for 3 weeks at 37° C., 5% CO2, 95% humidity. Plates containing ≦1 clone per well were cultured until wells positive for single clones were confluent. Individual clones were then arrayed into columns of a destination 96-well plate, and partly split into 6-well plates for culture maintenance. Array plates were washed once with IMR32 buffer and cells loaded for 1 hour with 0.1 mL of IMR32 buffer containing Fluo-4 (3 μM final concentration, Molecular Probes). Then they were washed twice with 0.1 mL of IMR32 buffer, and replaced with 0.1 mL IMR32 buffer. Plates were then transferred to a FLIPR^96 for assay. The FLIPR measured basal Fluo-4 fluorescence for 315 seconds, then added 0.1 mL KCl agonist dissolved in IMR32 buffer and measured fluorescence for another 45 seconds. Final KCl concentration was 90 mM. Data were collected over the entire time course and analyzed using Excel, Graph Pad Prism, or Activity Base software. […]
For orientation: Calcium flux is commonly read through the fluorescence of an indicator in the cells.

Experiment [2] addresses T2, L-type calcium channel (LTCC) (Rattus norvegicus, UniProt P22002).
T2 construct: differentiated A7r5 cells were trypsinized, then seeded on tissue culture treated 96-well clear-bottom black plates; endogenous in cells; host or cells: differentiated A7r5 cells (ATCC)
Briefly: FLIPR calcium mobilization (and/or electrophysiological) assay for L-type calcium channel. The experiment is classed as cell-based. Particulars: calcium mobilization and/or electrophysiological in vitro assay; differentiated A7r5 cells, 90 mM KCl. The protocol: A7r5 (ATCC) cells were maintained and routinely cultured in A7r5 growth medium consisting of Dulbecco's Modified Eagles Medium containing 10% FBS, 100 U/mL penicillin, 100 μg/mL streptomycin, 4 mM L-glutamine, and 0.15% sodium bicarbonate. 80-90% confluent flasks of cells were differentiated using the following differentiation medium: A7r5 Growth Medium plus 1 mM dibutyryl cyclic AMP (Sigma). Cells were differentiated for 8 days by replacing differentiation medium every 2-3 days.
One day prior to performing this assay, differentiated A7r5 cells were trypsinized, then seeded on tissue culture treated 96-well clear-bottom black plates (Becton Dickinson, Franklin Lakes, N.J.) at a dilution of 1:1 from a confluent T150 cm^2 flask. On the day of the assay, the plates were washed with A7r5 wash buffer (127 mM NaCl, 2 mM MgCl2, 700 μM NaH2PO4, 5 mM CaCl2, 5 mM NaHCO3, 8 mM HEPES, 10 mM glucose, pH 7.4), then loaded with 0.1 mL of A7r5 wash buffer containing Fluo-4 (3 μM final concentration, Molecular Probes, Eugene, Oreg.). After 1 hour, the cells were washed with 0.1 mL A7r5 wash buffer and resuspended in 0.05 mL A7r5 assay buffer that was composed of A7r5 wash buffer plus 50 μM valinomycin (Sigma). Plates were then transferred to a FLIPR^96 for assay. The FLIPR measured basal Fluo-4 fluorescence for 15 seconds, then added 0.05 mL of each compound tested diluted in A7r5 assay buffer at final concentrations ranging from about 846 pM to about 17 μM. Fluo-4 fluorescence was then measured for 5 minutes. 0.1 mL KCl agonist dissolved in A7r5 assay buffer was then added to the cells to produce a final concentration of 90 mM KCl, and fluorescence was measured for another 45 seconds. Data were collected over the entire time course and analyzed using Excel, Graph Pad Prism, or Activity Base software.

Structures can show the parent of a compound that is named as a salt.

T2 sequence (P22002 whole entry): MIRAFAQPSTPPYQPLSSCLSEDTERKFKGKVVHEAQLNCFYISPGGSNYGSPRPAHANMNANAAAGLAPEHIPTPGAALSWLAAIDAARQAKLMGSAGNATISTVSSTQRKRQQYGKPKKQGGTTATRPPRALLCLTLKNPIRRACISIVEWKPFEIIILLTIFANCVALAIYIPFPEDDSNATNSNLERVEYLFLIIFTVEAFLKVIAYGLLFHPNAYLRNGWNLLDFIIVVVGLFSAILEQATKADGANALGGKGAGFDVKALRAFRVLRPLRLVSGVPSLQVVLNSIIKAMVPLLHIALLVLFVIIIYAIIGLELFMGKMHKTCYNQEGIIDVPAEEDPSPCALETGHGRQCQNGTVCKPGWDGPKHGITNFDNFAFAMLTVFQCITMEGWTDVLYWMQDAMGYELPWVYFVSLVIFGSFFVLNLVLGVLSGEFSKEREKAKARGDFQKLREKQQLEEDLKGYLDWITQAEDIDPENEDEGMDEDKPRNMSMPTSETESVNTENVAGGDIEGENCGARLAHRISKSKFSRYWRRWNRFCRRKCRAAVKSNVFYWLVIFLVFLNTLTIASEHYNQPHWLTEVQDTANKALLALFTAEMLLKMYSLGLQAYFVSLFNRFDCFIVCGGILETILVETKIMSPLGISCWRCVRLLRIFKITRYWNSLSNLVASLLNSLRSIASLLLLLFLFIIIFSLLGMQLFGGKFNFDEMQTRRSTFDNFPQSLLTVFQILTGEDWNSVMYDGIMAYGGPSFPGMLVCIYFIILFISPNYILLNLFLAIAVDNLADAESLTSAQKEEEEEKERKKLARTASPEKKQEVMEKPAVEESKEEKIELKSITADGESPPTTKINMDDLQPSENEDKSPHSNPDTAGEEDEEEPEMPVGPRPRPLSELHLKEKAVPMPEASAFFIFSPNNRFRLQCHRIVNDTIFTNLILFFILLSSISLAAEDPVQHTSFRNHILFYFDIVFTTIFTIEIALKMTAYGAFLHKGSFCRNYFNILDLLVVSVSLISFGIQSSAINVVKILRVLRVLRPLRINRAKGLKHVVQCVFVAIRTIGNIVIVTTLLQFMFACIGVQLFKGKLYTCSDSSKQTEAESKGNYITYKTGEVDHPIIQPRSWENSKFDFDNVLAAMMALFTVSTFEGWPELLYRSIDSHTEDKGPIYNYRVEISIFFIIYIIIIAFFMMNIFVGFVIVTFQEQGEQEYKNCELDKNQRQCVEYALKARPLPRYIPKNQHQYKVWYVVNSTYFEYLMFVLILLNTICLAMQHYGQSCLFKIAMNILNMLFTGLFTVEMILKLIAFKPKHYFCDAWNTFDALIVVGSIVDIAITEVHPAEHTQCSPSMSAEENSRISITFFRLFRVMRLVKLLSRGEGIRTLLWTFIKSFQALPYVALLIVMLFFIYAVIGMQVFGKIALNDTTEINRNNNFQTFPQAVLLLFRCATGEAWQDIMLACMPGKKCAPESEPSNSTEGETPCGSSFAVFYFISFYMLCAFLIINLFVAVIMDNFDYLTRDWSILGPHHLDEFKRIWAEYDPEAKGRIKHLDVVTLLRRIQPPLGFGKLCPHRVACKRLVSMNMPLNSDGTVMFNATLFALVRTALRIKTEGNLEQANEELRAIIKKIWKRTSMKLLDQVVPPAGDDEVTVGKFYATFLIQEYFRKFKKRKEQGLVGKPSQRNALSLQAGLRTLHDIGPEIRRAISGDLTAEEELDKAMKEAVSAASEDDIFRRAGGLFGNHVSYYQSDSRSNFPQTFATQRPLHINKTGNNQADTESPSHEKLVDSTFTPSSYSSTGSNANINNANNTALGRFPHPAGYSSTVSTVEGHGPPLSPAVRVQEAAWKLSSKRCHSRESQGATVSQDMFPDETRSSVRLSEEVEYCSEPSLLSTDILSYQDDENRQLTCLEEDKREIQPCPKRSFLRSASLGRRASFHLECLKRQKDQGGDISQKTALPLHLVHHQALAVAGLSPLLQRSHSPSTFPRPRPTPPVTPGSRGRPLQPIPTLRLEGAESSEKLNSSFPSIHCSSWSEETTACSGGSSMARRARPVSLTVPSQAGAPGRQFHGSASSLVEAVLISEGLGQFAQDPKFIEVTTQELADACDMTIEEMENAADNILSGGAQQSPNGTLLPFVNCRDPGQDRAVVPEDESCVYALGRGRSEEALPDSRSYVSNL
T2 sequence (P54290 25-944 partner limits assumed): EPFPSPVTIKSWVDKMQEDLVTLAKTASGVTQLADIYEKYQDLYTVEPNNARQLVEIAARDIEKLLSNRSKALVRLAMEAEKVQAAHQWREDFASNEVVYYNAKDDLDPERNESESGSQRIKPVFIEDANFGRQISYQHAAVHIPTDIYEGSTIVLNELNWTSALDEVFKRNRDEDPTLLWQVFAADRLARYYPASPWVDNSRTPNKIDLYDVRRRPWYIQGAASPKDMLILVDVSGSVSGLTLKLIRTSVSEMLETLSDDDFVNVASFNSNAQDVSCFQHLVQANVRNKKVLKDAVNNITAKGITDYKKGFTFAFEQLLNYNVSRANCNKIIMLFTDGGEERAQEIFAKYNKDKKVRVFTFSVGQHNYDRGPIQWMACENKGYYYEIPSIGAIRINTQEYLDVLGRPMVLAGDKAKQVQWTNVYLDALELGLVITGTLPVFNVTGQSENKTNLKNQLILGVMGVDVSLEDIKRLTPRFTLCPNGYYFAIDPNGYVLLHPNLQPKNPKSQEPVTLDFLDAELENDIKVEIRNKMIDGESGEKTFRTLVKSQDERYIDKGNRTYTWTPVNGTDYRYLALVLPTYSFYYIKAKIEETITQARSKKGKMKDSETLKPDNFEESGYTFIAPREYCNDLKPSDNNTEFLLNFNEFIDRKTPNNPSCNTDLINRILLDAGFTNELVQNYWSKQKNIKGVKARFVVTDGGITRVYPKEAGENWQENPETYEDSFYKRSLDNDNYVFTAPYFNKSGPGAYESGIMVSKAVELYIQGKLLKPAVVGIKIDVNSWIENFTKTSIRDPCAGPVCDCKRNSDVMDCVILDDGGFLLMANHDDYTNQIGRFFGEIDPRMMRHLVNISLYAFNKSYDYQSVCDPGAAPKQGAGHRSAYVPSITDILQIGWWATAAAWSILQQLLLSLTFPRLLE
T2 sequence (P54290 945-1091 partner limits assumed): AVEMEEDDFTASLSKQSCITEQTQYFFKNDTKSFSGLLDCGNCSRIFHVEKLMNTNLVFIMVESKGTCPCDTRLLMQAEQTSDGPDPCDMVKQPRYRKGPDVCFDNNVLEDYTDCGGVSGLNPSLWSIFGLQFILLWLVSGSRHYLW
T2 sequence (P54287 whole entry partner): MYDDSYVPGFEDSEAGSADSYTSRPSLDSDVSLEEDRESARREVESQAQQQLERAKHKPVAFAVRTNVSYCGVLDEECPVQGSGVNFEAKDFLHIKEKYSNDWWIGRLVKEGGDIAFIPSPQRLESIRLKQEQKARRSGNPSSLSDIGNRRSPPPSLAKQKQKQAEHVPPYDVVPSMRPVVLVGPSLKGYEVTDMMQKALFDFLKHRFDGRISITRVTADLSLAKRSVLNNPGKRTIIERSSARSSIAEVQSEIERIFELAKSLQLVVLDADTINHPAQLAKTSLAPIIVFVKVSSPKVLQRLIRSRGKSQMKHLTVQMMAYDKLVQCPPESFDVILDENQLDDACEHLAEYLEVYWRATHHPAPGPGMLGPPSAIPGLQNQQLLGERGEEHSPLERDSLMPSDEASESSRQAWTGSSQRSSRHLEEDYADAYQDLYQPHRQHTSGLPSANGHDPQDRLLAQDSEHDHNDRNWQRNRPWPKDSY

The IC50 is the concentration at which inhibition is half-maximal. Turning to `CN[C@@H](CC(C)C)C(=O)N1CCC(N(C(C)C)S(=O)(=O)c2cccc(C(F)(F)F)c2)CC1` [(2S) N-Isopropyl-N-[1-(4-methyl-2-methylaminopentanoyl)-piperidin-4-yl]-3-trifluoromethylbenzenesulfonamide fumarate], the results for the 50% inhibitory concentration (IC50) in experiment [1] and in experiment [2] were 870 nM and more than 20000 nM, respectively.
For `O=C(CCC(c1ccc(F)cc1)c1ccc(F)cc1)N1CCC(N(C2CC2)S(=O)(=O)c2cccc(F)c2)CC1` [N-cyclopropyl-N-{1-[4,4-bis(4-fluorophenyl)butanoyl]piperidin-4-yl}-3-fluorobenzenesulfonamide], in that order: 970 nM and 1430 nM.
`CCCc1ccc(S(=O)(=O)N2CCC(N(C3CC3)S(=O)(=O)c3cccc(C(F)(F)F)c3)CC2)cc1` [N-Cyclopropyl-N-[1-(4-propylphenylsulfonyl)piperidin-4-yl]-3-trifluoromethylbenzenesulfonamide]: the IC50 in experiment [1] was 440 nM; in experiment [2] it was 940 nM.
For `O=S(=O)(c1cccc(C(F)(F)F)c1)N(C1CC1)C1CCN(CCCC(c2ccc(F)cc2)c2ccc(F)cc2)CC1` [N-Cyclopropyl-N-{1-[4,4-bis(4-fluorophenyl)butyl]piperidin-4-yl}-3-trifluoromethylbenzenesulfonamide], in that order: 110 nM and 3780 nM.
Regarding `O=S(=O)(c1cccc(C(F)(F)F)c1)N(C1CC1)C1CCN(CCOC(c2ccc(F)cc2)c2ccc(F)cc2)CC1` [N-Cyclopropyl-N-{1-[2-bis(4-fluorophenyl)methoxyethyl]piperidin-4-yl}-3-trifluoromethylbenzenesulfonamide], the IC50 was found to be 780 nM in experiment [1] and 2230 nM in experiment [2].
For `N[C@@H](C(=O)N1CCC(N(C2CC2)S(=O)(=O)c2cccc(C(F)(F)F)c2)CC1)C1CCCCC1` [(2R) N-[1-(2-Amino-2-cyclohexylethanoyl)piperidin-4-yl]-N-cyclopropyl-3-trifluoromethylbenzenesulfonamide], in that order: 440 nM and more than 20000 nM.
As for `CN[C@@H](CC(C)C)C(=O)N1CCC(N(C)S(=O)(=O)c2cccc(C(F)(F)F)c2)CC1` [(2S) N-Methyl-N-[1-(4-methyl-2-methylaminopentanoyl)-piperidin-4-yl]-3-trifluoromethylbenzenesulfonamide fumarate], the IC50 in experiment [1] came to 390 nM; in experiment [2] it was 5120 nM.
For `CCCC(CC(=O)N1CCC(N(C2CC2)S(=O)(=O)c2cccc(C(F)(F)F)c2)CC1)N1CCSCC1` (stereo not drawn) [N-Cyclopropyl-N-[1-(3-thiomorpholin-4-yl-hexanoyl)piperidin-4-yl]-3-trifluoromethylbenzenesulfonamide], in that order: 280 nM and 10000 to 20000 nM.
For `CN[C@@H](CC(C)C)C(=O)N1CCC(N(CC(C)C)S(=O)(=O)c2cccc(C(F)(F)F)c2)CC1` [(2S) N-i-butyl-N-[1-(4-methyl-2-methylaminopentanoyl)piperidin-4-yl]-3-trifluoromethylbenzenesulfonamide], in that order: 950 nM and 9120 nM.
For `CC(C)C[C@H](N)C(=O)N1CCC(N(C2CC2)S(=O)(=O)c2ccccc2)CC1` [(2S) N-[1-(2-amino-4-methylpentanoyl)piperidin-4-yl]-N-cyclopropyl-benzenesulfonamide], in that order: 4280 nM and 10000 to 20000 nM.
Take `NC(Cc1ccc(F)cc1)C(=O)N1CCC(N(C2CC2)S(=O)(=O)c2cccc(C(F)(F)F)c2)CC1` (stereo not drawn) [N-{1-[2-Amino-3-(4-fluorophenyl)propionyl]piperidin-4-yl}-N-cyclopropyl-3-trifluoromethylbenzenesulfonamide]: the results for the IC50 in experiment [1] and in experiment [2] were 180 nM and 8600 nM, respectively.
For `CNC(Cc1ccccc1C)C(=O)N1CCC(N(C2CC2)S(=O)(=O)c2cccc(C(F)(F)F)c2)CC1` (stereo not drawn) [N-Cyclopropyl-N-[1-(2-methylamino-3-o-tolylpropionyl)piperidin-4-yl]-3-trifluoromethylbenzenesulfonamide], in that order: 390 nM and 10000 to 20000 nM.

For the origin of these results see US9000174B2, “4-phenylsulfonamidopiperidines as calcium channel blockers” (Purdue Pharma L.P., priority 2004, dated 2015).
